In patent publication US20240067702A1, “LACTAM-MODIFIED P[…]” (DONGBAO PURPLE STAR (HANGZHOU) BIOPHARMACEUTICAL CO., LTD., priority 2020, published 2024):
*1 amine or outer side, *2 acyl side, *3 side chain or, on linkers, in order; H or OH if unused. Where a SMILES comes first, the peptide text is derived from it. Bridges are numbered along the chain shown (N, C = ends). Side-chain parts run from the residue outwards. [ ]: non-standard residue; d: D form. The star is where a group is joined. C20 diacid = O=C(O)CCCCCCCCCCCCCCCCCCC(=O)*; C18 diacid = O=C(O)CCCCCCCCCCCCCCCCC(=O)*; γGlu = O=C(O)[C@H](CCC(=O)[*:2])N[*:1]; AEEA = NCCOCCOCC(=O)O; Aib = CC(C)(N)C(=O)O

Assays:
[1] = molecular target: T1, GLP-1R (Homo sapiens, UniProt P43220); experiment: GLP-1R agonist activity test in vitro (cAMP assay); assay type: cell-based; settings: HEK293 host cell
T1 construct: host or cells: HEK293
T1 sequence (P43220 24-463): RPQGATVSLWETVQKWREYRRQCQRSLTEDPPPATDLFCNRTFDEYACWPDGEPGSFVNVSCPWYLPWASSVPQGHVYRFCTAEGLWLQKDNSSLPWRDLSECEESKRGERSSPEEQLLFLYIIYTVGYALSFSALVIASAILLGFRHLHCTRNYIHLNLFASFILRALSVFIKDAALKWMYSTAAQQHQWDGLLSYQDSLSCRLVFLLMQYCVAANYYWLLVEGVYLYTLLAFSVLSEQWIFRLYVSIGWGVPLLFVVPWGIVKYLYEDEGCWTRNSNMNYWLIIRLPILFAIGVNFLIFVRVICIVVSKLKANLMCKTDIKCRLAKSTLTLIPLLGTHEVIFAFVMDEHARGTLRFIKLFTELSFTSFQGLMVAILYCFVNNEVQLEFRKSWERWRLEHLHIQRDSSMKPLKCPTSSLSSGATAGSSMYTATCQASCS
Method: (§1) The cell strains were constructed by Shanghai WuXi AppTec.
(§2) The test compound was serially diluted 4-fold with 10 points. The initial concentration was 30 μM, and the dilution was completed with Bravo.
(§3) 1) 100 nL of the compound was transferred to OptiPlate-384 plate using Echo.
(§4) 7) The GLP-1R/GIPR cell concentration was diluted to 2.0*10^5/mL with the experimental buffer.
(§5) 8) […] of the diluted cell suspension was transferred into the OptiPlate-384 plate.
(§6) 9) The diluted cell suspension was incubated at room temperature for 30 minutes.
(§7) 2) 10 μL of cAMP detection reagent was added.
(§8) 3) The OptiPlate-384 plate was covered with TopSeal-A film and incubated at room temperature for 60 minutes.
(§9) TopSeal-A was removed and read in EnVision.

[2] = molecular target: T2, GIPR (Homo sapiens, UniProt P48546); experiment: GIPR agonist activity test in vitro (cAMP assay); assay type: cell-based; settings: CHO host cell
T2 construct: host or cells: CHO
T2 sequence (P48546 22-466): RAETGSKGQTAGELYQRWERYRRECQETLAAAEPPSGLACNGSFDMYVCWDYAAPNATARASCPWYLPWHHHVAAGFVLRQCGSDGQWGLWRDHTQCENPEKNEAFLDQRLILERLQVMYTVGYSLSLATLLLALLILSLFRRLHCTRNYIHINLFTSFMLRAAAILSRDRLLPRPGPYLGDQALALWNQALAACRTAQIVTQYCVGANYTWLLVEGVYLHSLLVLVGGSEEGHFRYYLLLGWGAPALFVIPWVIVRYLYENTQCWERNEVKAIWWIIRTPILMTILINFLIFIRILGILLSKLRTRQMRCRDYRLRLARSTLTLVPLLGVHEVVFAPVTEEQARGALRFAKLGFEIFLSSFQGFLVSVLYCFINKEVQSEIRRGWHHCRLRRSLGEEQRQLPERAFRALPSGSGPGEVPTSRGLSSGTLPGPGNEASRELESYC
Method: as §1, §2, §3, §4, §5, §6, §7, §8, §9

[3] = GLP-IR Agonist Activity EC50 (−) 1% HSA, without 1% HSA
[4] = GIPR Agonist Activity EC50 (−) 1% HSA, without 1% HSA

| Structure (SMILES) | EC50 [1, 3] [pM] | EC50 [2, 4] [pM] | EC50 ([1]; GLP-IR Agonist Activity EC50 (+) 1% HSA, with 1% HSA) [pM] | EC50 ([2]; GIPR Agonist Activity EC50 (+) 1% HSA, with 1% HSA) [pM] |
| --- | --- | --- | --- | --- |
| CC[C@H](C)[C@H](NC(=O)[C@H](CC(C)C)NC(=O)[C@H](Cc1c[nH]c2ccccc12)NC(=O)[C@@H]1CCC(=O)NCCCC[C@H](NC(=O)[C@H](CCC(N)=O)NC(=O)[C@H](C)NC(=O)[C@H](CCCCNC(=O)COCCOCCNC(=O)COCCOCCNC(=O)CC[C@H](NC(=O)CC[C@H](NC(=O)CCCCCCCCCCCCCCCCC(=O)O)C(=O)O)C(=O)O)NC(=O)[C@H](CCCCN)NC(=O)[C@H](CC(=O)O)NC(=O)[C@H](CC(C)C)NC(=O)C(C)(C)NC(=O)[C@@H](NC(=O)[C@H](CO)NC(=O)[C@H](Cc2ccc(O)cc2)NC(=O)[C@H](CC(=O)O)NC(=O)[C@H](CO)NC(=O)[C@@H](NC(=O)[C@H](Cc2ccccc2)NC(=O)[C@@H](NC(=O)CNC(=O)[C@H](CCC(=O)O)NC(=O)C(C)(C)NC(=O)[C@@H](N)Cc2ccc(O)cc2)[C@@H](C)O)[C@@H](C)O)[C@@H](C)CC)C(=O)N[C@@H](C)C(=O)N[C@@H](Cc2ccccc2)C(=O)N[C@@H](C(C)C)C(=O)N1)C(=O)N[C@@H](C)C(=O)NCC(=O)NCC(=O)N1CCC[C@H]1C(=O)N[C@@H](CO)C(=O)N[C@@H](CO)C(=O)NCC(=O)N[C@@H](C)C(=O)N1CCC[C@H]1C(=O)N1CCC[C@H]1C(=O)N1CCC[C@H]1C(=O)N[C@@H](CO)C(N)=O [WX-003] (H-Y[Aib]EGTFTSDYSI[Aib]LDKK([AEEA-AEEA-γGlu-γGlu-C18 diacid])AQKAFVEWLIAGGPSSGAPPPS-NH2; lactam 20-24) | 90 | 300 |  |  |
| CC[C@H](C)[C@H](NC(=O)[C@H](CO)NC(=O)[C@H](Cc1ccc(O)cc1)NC(=O)[C@H](CC(=O)O)NC(=O)[C@H](CO)NC(=O)[C@@H](NC(=O)[C@H](Cc1ccccc1)NC(=O)[C@@H](NC(=O)CNC(=O)[C@H](CCC(=O)O)NC(=O)C(C)(C)NC(=O)[C@@H](N)Cc1ccc(O)cc1)[C@@H](C)O)[C@@H](C)O)C(=O)NC(C)(C)C(=O)N[C@@H](CC(C)C)C(=O)N[C@@H](CC(=O)O)C(=O)N[C@@H](CCCCN)C(=O)N[C@@H](CCCCNC(=O)COCCOCCNC(=O)COCCOCCNC(=O)CC[C@H](NC(=O)CCCCCCCCCCCCCCCCCCC(=O)O)C(=O)O)C(=O)N[C@@H](C)C(=O)N[C@@H](CCC(N)=O)C(=O)N[C@H]1CCCCNC(=O)CC[C@@H](C(=O)N[C@@H](Cc2c[nH]c3ccccc23)C(=O)N[C@@H](CC(C)C)C(=O)N[C@@H](CC(C)C)C(=O)N[C@@H](C)C(=O)NCC(=O)NCC(=O)N2CCC[C@H]2C(=O)N[C@@H](CO)C(=O)N[C@@H](CO)C(=O)NCC(=O)N[C@@H](C)C(=O)N2CCC[C@H]2C(=O)N2CCC[C@H]2C(=O)N2CCC[C@H]2C(=O)N[C@@H](CO)C(N)=O)NC(=O)[C@H](C(C)C)NC(=O)[C@H](Cc2ccccc2)NC(=O)[C@H](C)NC1=O [WX-007] (H-Y[Aib]EGTFTSDYSI[Aib]LDKK([AEEA-AEEA-γGlu-C20 diacid])AQKAFVEWLLAGGPSSGAPPPS-NH2; lactam 20-24) | 140 | 130 |  |  |
| CC[C@H](C)[C@H](NC(=O)[C@H](CC(C)C)NC(=O)[C@H](Cc1c[nH]c2ccccc12)NC(=O)[C@H](CCCCNC(=O)COCCOCCNC(=O)COCCOCCNC(=O)CC[C@H](NC(=O)CCCCCCCCCCCCCCCCCCC(=O)O)C(=O)O)NC(=O)[C@@H](NC(=O)[C@H](Cc1ccccc1)NC(=O)[C@H](C)NC(=O)[C@@H]1CCCCNC(=O)CC[C@H](NC(=O)[C@H](CCCCN)NC(=O)[C@H](CC(=O)O)NC(=O)[C@H](CC(C)C)NC(=O)C(C)(C)NC(=O)[C@@H](NC(=O)[C@H](CO)NC(=O)[C@H](Cc2ccc(O)cc2)NC(=O)[C@H](CC(=O)O)NC(=O)[C@H](CO)NC(=O)[C@@H](NC(=O)[C@H](Cc2ccccc2)NC(=O)[C@@H](NC(=O)CNC(=O)[C@H](CCC(=O)O)NC(=O)C(C)(C)NC(=O)[C@@H](N)Cc2ccc(O)cc2)[C@@H](C)O)[C@@H](C)O)[C@@H](C)CC)C(=O)N[C@@H](C)C(=O)N[C@@H](CCC(N)=O)C(=O)N1)C(C)C)C(=O)N[C@@H](C)C(=O)NCC(=O)NCC(=O)N1CCC[C@H]1C(=O)N[C@@H](CO)C(=O)N[C@@H](CO)C(=O)NCC(=O)N[C@@H](C)C(=O)N1CCC[C@H]1C(=O)N1CCC[C@H]1C(=O)N1CCC[C@H]1C(=O)N[C@@H](CO)C(N)=O [WX-008] (H-Y[Aib]EGTFTSDYSI[Aib]LDKEAQKAFVK([AEEA-AEEA-γGlu-C20 diacid])WLIAGGPSSGAPPPS-NH2; lactam 17-20) | 80 | 320 |  |  |
| CC[C@H](C)[C@H](NC(=O)[C@@H]1CCCCNC(=O)CC[C@H](NC(=O)[C@@H](NC(=O)[C@H](CO)NC(=O)[C@H](Cc2ccc(O)cc2)NC(=O)[C@H](CC(=O)O)NC(=O)[C@H](CO)NC(=O)[C@@H](NC(=O)[C@H](Cc2ccccc2)NC(=O)[C@@H](NC(=O)CNC(=O)[C@H](CCC(=O)O)NC(=O)C(C)(C)NC(=O)[C@@H](N)Cc2ccc(O)cc2)[C@@H](C)O)[C@@H](C)O)[C@@H](C)CC)C(=O)N[C@@H](CC(C)C)C(=O)N[C@@H](CC(=O)O)C(=O)N1)C(=O)N[C@@H](C)C(=O)N[C@@H](CCC(N)=O)C(=O)N[C@@H](CCCCNC(=O)COCCOCCNC(=O)COCCOCCNC(=O)CC[C@H](NC(=O)CCCCCCCCCCCCCCCCCCC(=O)O)C(=O)O)C(=O)N[C@@H](C)C(=O)N[C@@H](Cc1ccccc1)C(=O)N[C@H](C(=O)N[C@@H](CCC(N)=O)C(=O)N[C@@H](Cc1c[nH]c2ccccc12)C(=O)N[C@@H](CC(C)C)C(=O)N[C@H](C(=O)N[C@@H](C)C(=O)NCC(=O)NCC(=O)N1CCC[C@H]1C(=O)N[C@@H](CO)C(=O)N[C@@H](CO)C(=O)NCC(=O)N[C@@H](C)C(=O)N1CCC[C@H]1C(=O)N1CCC[C@H]1C(=O)N1CCC[C@H]1C(=O)N[C@@H](CO)C(N)=O)[C@@H](C)CC)C(C)C [WX-010] (H-Y[Aib]EGTFTSDYSIELDKIAQK([AEEA-AEEA-γGlu-C20 diacid])AFVQWLIAGGPSSGAPPPS-NH2; lactam 13-16) | 34.5 | 11900 | 34000 | 443000 |
